Source: paper PMC10917816, “Synthesis and evaluation of coumarin derivatives on antioxidative, tyrosinase inhibitory activities, melanogenesis, and in silico investigations” (Scientific Reports, 2024)
“Also recorded” adds a separate entry of the source. Like-named read-outs stand apart in the source and are kept apart here.

Key:
[1] = Lipid peroxidation inhibitory activity (thiobarbituric acid test, linoleic acid); conditions: at 1 mg/ml of tested compound; TBA test
[2] = molecular target: T1, mushroom tyrosinase (Agaricus bisporus, UniProt C7FF04); assay: Mushroom tyrosinase activity assay (L-DOPA substrate); format: biochemical; conditions: for activity at 100 µM: <100 inhibitor, >100 activator; for Activity (inhibitor or activator of mushroom tyrosinase): classified from %activity at 100 µM (<100 inhibitor, >100 activator)
Description: Samples were dissolved in a mixture of DMSO and the phosphate buffer solution (40%DMSO, 20 µL) and were added into a 96-well microplate filled with phosphate buffer (20 mM, pH 6.8, 140 µL), mushroom tyrosinase (30 U/mL, 20 µL). After 10 min of pre-incubation at room temperature (25 °C), 20 µL of a 0.85 mM L-DOPA (3,4-dihydroxyphenylalanine) solution in phosphate buffer was added to the mixture. (Final concentration of the tested compound equaled 100 µM and final DMSO content equaled 4%). […] Instead of an inhibitor solution, phosphate buffer was added as the negative control. The percentage of tyrosinase activity was calculated as follows: %Activity = (Sample) × 100/Blank, where Blank = (OD of Blank solution at 10 min)—(OD of Blank solution at 0 min) and Sample = (OD of Sample solution at 10 min)—(OD of Sample solution at 0 min). Each sample was analyzed in triplicate (n = 3). […] Each sample was examined in triplicate.
Target sequence in this assay (C7FF04 1-392): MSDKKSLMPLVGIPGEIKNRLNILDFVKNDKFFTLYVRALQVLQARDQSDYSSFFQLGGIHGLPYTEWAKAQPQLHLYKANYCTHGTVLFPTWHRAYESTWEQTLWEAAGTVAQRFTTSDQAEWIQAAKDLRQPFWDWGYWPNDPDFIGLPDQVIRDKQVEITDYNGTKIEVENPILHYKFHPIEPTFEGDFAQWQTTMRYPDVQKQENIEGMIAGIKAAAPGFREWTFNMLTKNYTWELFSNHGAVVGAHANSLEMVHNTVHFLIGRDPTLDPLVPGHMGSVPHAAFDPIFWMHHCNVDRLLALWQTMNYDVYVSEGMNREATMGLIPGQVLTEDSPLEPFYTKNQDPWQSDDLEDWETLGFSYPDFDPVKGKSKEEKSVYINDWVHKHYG

[3] = tested on: B16F10 cells; assay: Melanin content assay; format: cell-based, Mus musculus; conditions: 48 h
Description: Compound 13 and compound 14 were also determined for their melanogenesis activities in the B16F10 cells. Intracellular melanin content was measured. […] However, the increase in melanin content in the cells was lower than cells treated with 8-MOP (Fig. 8B).
The method for the melanin content assay was modified from Lee et al.[37]. B16F10 (8 × 10^4 cell/mL) cells were seeded in a 6-well plate and incubated at 37 °C in a 5% CO2 incubator for 24 h. The tested and reference compounds in various concentrations were mixed with α-melanocyte stimulating hormone (α-MSH, 10 nM) and added to the well. The cells were continuously incubated at 37 °C for 48 h. Then, the cells were washed twice with 10 mM phosphate buffer pH 7.4. 1 M NaOH (0.2 mL) was added to each well and warmed at 65 °C for 1 h. The mixture was centrifuged at 12,000 rpm for 10 min. The absorbance of the supernatant was measured at 405 nm. The percent melanin content in the treatment group was obtained from the absorbance and calculated as a percentage compared to the untreated group.

[4] = tested on: B16F10 melanoma cells; assay: Cell viability assay (MTT); format: cell-based, Mus musculus; conditions: 48 h
Description: (§1) B16F10 cells were incubated with compounds 13 (25–100 µM) and 14 (25–150 µM) for 48 h. KA (50–200 µM) and 8-MOP (50–150 µM) were used as reference compounds for the tyrosinase inhibitor and the activator, respectively. […] (%viability decreased to 50%).
(§2) B16F10 cells (ATCC-CRL-6475, USA) were cultured in Dulbecco’s modified eagle medium (DMEM) containing 10% fetal bovine serum (FBS), 100 U/mL penicillin, and 1 μg/mL streptomycin. Cell viability was evaluated using the MTT assay. B16F10 cells (5 × 10^3 cells/well) were cultured in a 96-well plate at 37 °C in a 5% CO2 incubator for 24 h. Tested compounds dissolved in DMSO/H2O (40% v/v) at different concentrations were added to sample wells, and the cells were further incubated at 37 °C in a 5% CO2 incubator for 48 h. Then, 50 µL of methylthiazolyldiphenyl-tetrazolium bromide (MTT) solution (0.5 mg/ml in 10 mM phosphate buffer, pH 7.4) was added to each well and left under a CO2 incubator for 2 h. The formazan crystals formed were dissolved in DMSO, and the absorbance was measured at 570 nm. Percent viability was calculated as the percent of surviving cells in the well compared to the control cells.

[5] = molecular target: T1, mushroom tyrosinase; assay: Enzyme kinetic study (Lineweaver–Burk plot); format: biochemical; parameters: purchased Sigma-Aldrich or Merck AG; conditions: double-reciprocal (Lineweaver–Burk) plots
Description: Double-reciprocal plots were used to investigate the mechanisms of mushroom tyrosinase inhibition by compound 13 (Fig. 2).
Utilizing the same protocol as the tyrosinase activity assay, an enzyme kinetics study was conducted with compound 13. A Michaelis–Menten plot was generated by varying the substrate concentration (25–10,000 µM) and reaction rate under conditions with and without inhibitors. A Lineweaver–Burk plot was generated, and the inhibition mode of the inhibitor was determined based on the variation of Km and Vmax as the inhibitor concentration changed.
Target sequence in this assay (C7FF04 1-392 limits assumed): as the sequence (C7FF04 1-392) above

[6] = Cell viability assay (MTT); format: cell-based, Mus musculus; conditions: mouse, B16F10 melanoma cells
Description: as §1, §2

[7] = tested on: murine tyrosinase; conditions: broad range; cited from earlier work
[8] = at 100 µM of tested compound, read-out: Mushroom tyrosinase %Activity ± S.D.

| SMILES | melting point [°C] | activity at 100 µM [2, 8] [%] | Activity (inhibitor or activator of mushroom tyrosinase) [2] | Lipid peroxidation %Inhibition ± S.D. [1] [%] | further results |
| --- | --- | --- | --- | --- | --- |
| COc1c2occc2cc2ccc(=O)oc12 [Compound 8-MOP, 8-methoxypsoralen, reference compound] | – | – | Activator | – | activity at 100 µM ([2]; read-out: Mushroom tyrosinase %Activity ± S.D., at 100 µM of tested compound): 101 ± 6.18% |
| CCOC(=O)C(Cc1ccc(O)cc1)NC(=O)Cc1cc(=O)oc2cc(O)ccc12 (stereo not drawn) [Compound 8, Ethyl 2-(2-(7-hydroxy-2-oxo-2H-chromen-4-yl)acetamido)-3-(4-hydroxyphenyl)propanoate] | 152 to 154 | 107 ± 9.89 | Activator | 44.32 ± 4.16 | – |
| COc1ccc2c(CC(=O)NCCc3ccc(O)cc3)cc(=O)oc2c1 [Compound 14, N-(4-hydroxyphenethyl)-2-(7-methoxy-2-oxo-2H-chromen-4-yl)acetamide] | 152 to 153 | 123 ± 13.4 | Activator | 26.66 ± 1.67 | Effect on melanogenesis (intracellular melanin content) in B16F10 cells ([3]; 25–100 μM, compared with 8-MOP): melanogenesis enhancement in B16F10 cells in a dose-dependent manner, however, inferior to the 8-MOP; also recorded: effectively enhanced melanogenesis in B16F10 cells in a dose-dependent manner; Cytotoxicity against B16F10 cells ([4]; 25–100 μM): did not show cytotoxicity |
| CCOC(=O)C(Cc1c[nH]c2ccccc12)NC(=O)Cc1cc(=O)oc2cc(OC)ccc12 (stereo not drawn) [Compound 13] | 162 to 163 | 51.1 ± 9.45 | Inhibitor | 67.88 ± 5.48 | Mechanism of mushroom tyrosinase inhibition [5]: uncompetitive inhibition; also recorded: uncompetitively inhibited the tyrosinase enzyme; also recorded: uncompetitive tyrosinase inhibitor; Effect on melanogenesis (intracellular melanin content) in B16F10 cells ([3]; 25 μM, with α-MSH, compared with KA at 100 μM): inhibited melanogenesis equally to KA at 100 μM; Effect on melanogenesis (intracellular melanin content) in B16F10 cells ([3]; 50 μM, with α-MSH, compared with KA at 100 μM): suppressed melanogenesis in B16F10 cells with two times higher potency than KA; also recorded: suppressed melanogenesis with approximately two times higher potency than KA at 100 μM; also recorded: higher melanin suppression at a lower concentration (50 μM) than KA (100 μM); Cytotoxicity against B16F10 cells ([4]; 25–50 μM): did not show cytotoxicity; viability at 48 h, 75 µM ([6]; 75 µM): 50%; viability at 48 h ([6]; 25–50 µM): > 80% |
| Cc1cc(C(C)(C)C)c(O)c(C(C)(C)C)c1 [BHT, butylated hydroxytoluene, reference compound] | – | – | – | 62.90 ± 3.56 | – |
| COc1cc2oc(=O)cc(CC(=O)NCCc3ccc(O)cc3)c2cc1O [Compound 18, N-(4-hydroxyphenethyl)-2-(6-hydroxy-7-methoxy-2-oxo-2H-chromen-4-yl)acetamide] | 227 to 228 | 115 ± 3.87 | Activator | 63.40 ± 0.89 | – |
| CCOC(=O)C(Cc1ccccc1)NC(=O)Cc1cc(=O)oc2cc(OC)ccc12 (stereo not drawn) [Compound 11, Ethyl 2-(2-(7-methoxy-2-oxo-2H-chromen-4-yl)acetamido)-3-phenylpropanoate] | 144 to 145 | 81.3 ± 3.72 | Inhibitor | 87.68 ± 1.09 | – |
| O=C(Cc1cc(=O)oc2cc(O)ccc12)NCCc1ccc(O)cc1 [Compound 10, N-(4-hydroxyphenethyl)-2-(7-hydroxy-2-oxo-2H-chromen-4-yl)acetamide] | 223 to 225 | 121 ± 7.51 | Activator | 27.51 ± 2.78 | – |
| O=c1cc(CO)occ1O [KA, kojic acid] | – | – | – | – | Activity against murine tyrosinase [7]: > 100 µM |

Continued, in another order:

| melting point [°C] | activity at 100 µM [2, 8] [%] | Activity (inhibitor or activator of mushroom tyrosinase) [2] | SMILES | Lipid peroxidation %Inhibition ± S.D. [1] [%] | further results |
| --- | --- | --- | --- | --- | --- |
| 198 to 200 | 100 ± 3.13 | Activator | CCOC(=O)C(Cc1ccc(O)cc1)NC(=O)Cc1cc(=O)oc2cc(OC)c(O)cc12 (stereo not drawn) [Compound 16, Ethyl 2-(2-(6-hydroxy-7-methoxy-2-oxo-2H-chromen-4-yl)acetamido)-3-(4-hydroxyphenyl) propanoate] | 79.31 ± 2.77 | – |
| 184 to 185 | 90.8 ± 12.4 | Inhibitor | CCOC(=O)C(Cc1ccccc1)NC(=O)Cc1cc(=O)oc2cc(OC)c(O)cc12 (stereo not drawn) [Compound 15, Ethyl 2-(2-(6-hydroxy-7-methoxy-2-oxo-2H-chromen-4-yl)acetamido)-3-phenylpropanoate] | 98.06 ± 0.54 | – |
| 185 to 188 | 98.3 ± 2.55 | Inhibitor | CCOC(=O)C(Cc1cc2ccccc2[nH]1)NC(=O)Cc1cc(=O)oc2cc(O)ccc12 (stereo not drawn) [Compound 9, Ethyl 2-(2-(7-hydroxy-2-oxo-2H-chromen-4-yl)acetamido)-3-(1H-indol-2-yl)propanoate] | 77.57 ± 4.11 | – |
| 154 to 155 | 113 ± 8.16 | Activator | CCOC(=O)C(Cc1ccc(O)cc1)NC(=O)Cc1cc(=O)oc2cc(OC)ccc12 (stereo not drawn) [Compound 12, Ethyl 2-(2-(7-methoxy-2-oxo-2H-chromen-4-yl)acetamido)-3-(4-hydroxyphenyl) propanoate] | 77.84 ± 3.25 | – |
| 173 to 174 | 75.9 ± 8.95 | Inhibitor | CCOC(=O)C(Cc1c[nH]c2ccccc12)NC(=O)Cc1cc(=O)oc2cc(OC)c(O)cc12 (stereo not drawn) [Compound 17] | 91.84 ± 5.39 | – |
| 139 to 140 | 86.2 ± 10.5 | Inhibitor | CCOC(=O)C(Cc1ccccc1)NC(=O)Cc1cc(=O)oc2cc(O)ccc12 (stereo not drawn) [Compound 7, Ethyl 2-(2-(7-hydroxy-2-oxo-2H-chromen-4-yl)acetamido)-3-phenylpropanoate] | 98.66 ± 1.57 | – |
